Reference: paper PMC9032934 (Pharmaceutics, 2022)
One block for each molecule: values may come before it. Non-standard residues stand in square brackets, D forms with d. Residues, ends and D or L forms follow the SMILES beside them.

Legend:
Caco-2 cells [1] = test: Cell viability by DAPI labeling in flow cytometry, Caco-2; settings: CPZ 20 μM, NYS 50 μM, MBCD 5 mM, compared to non-treated cells (80 ± 10%)
Caco-2 cells [2] = test: Cellular uptake of Tamra-labelled peptides by flow cytometry, Caco-2; type: cell-based, human; settings: for decrease in transfection efficiency with 10% serum / decrease in transfection efficiency with 20% serum: Tamra-peptides 5 µM, 3 h; for decrease in transfection efficiency with 10% serum: OptiMEM + 10% (v/v) FBS vs 0%; for decrease in transfection efficiency with 20% serum: OptiMEM + 20% (v/v) FBS vs 0%
Experimental: (§1) Next, 48 h post-seeding, cells were rinsed twice with D-PBS and then incubated with 500 μL of Tamra-CPP-iCAL36 solution at the indicated conditions.
(§2) Standard transfection and kinetic measurements.
(§3) Transfection in the presence of serum.

Calu-3 cells = test: Cellular uptake of Tamra-labelled peptides by flow cytometry, Calu-3; type: cell-based, human
Experimental: as §1, §2, §3

TatRI-iCAL36 = molecular target: T1, TatRI-iCAL36 (N-terminal D-amino acid retro-inverso Tat (qpprrrqrrkkrg)); test: fluorescence polarization
T1 chain: ANSRWPTSII

- intracellular fluorescence without vs with chloroquine, peptide at 1 µM (Caco-2 cells [2]; Tamra-TatRI-iCAL36 1 µM, CQ 100 µM, n = 4, one-way ANOVA): no statistical difference
- decrease in transfection efficiency with 10% serum (Caco-2 cells [2]; 37 °C, n = 4): no significant difference
- decrease in transfection efficiency with 20% serum (Caco-2 cells [2]; 37 °C, n = 4): 18%
- increase in signal intensity (internalization) with longer incubation time (4.5 h) (Caco-2 cells [2]; Tamra-peptides in OptiMEM, 4.5 h vs […], 37 °C, n = 3 (Figure S2A)): ~ 3 fold
Molecule: CC[C@H](C)[C@H](NC(=O)[C@@H](NC(=O)[C@H](CO)NC(=O)[C@@H](NC(=O)[C@@H]1CCCN1C(=O)[C@H](Cc1c[nH]c2ccccc12)NC(=O)[C@H](CCCNC(=N)N)NC(=O)[C@H](CO)NC(=O)[C@H](CC(N)=O)NC(=O)[C@H](C)NC(=O)CNC(=O)[C@@H](CCCNC(=N)N)NC(=O)[C@@H](CCCCN)NC(=O)[C@@H](CCCCN)NC(=O)[C@@H](CCCNC(=N)N)NC(=O)[C@@H](CCCNC(=N)N)NC(=O)[C@@H](CCC(N)=O)NC(=O)[C@@H](CCCNC(=N)N)NC(=O)[C@@H](CCCNC(=N)N)NC(=O)[C@@H](CCCNC(=N)N)NC(=O)[C@H]1CCCN1C(=O)[C@H]1CCCN1C(=O)[C@H](N)CCC(N)=O)[C@@H](C)O)[C@@H](C)CC)C(=O)O [TatRI-iCAL36] (H-[dQ][dP][dP][dR][dR][dR][dQ][dR][dR][dK][dK][dR]GANSRWPTSII-OH)

- Ki (TatRI-iCAL36): > 5 mM
B2: NHERF2 PDZ2 (N2P2) PDZ2 (protein)
chain: LRPRLCHLRKGPQGYGFNLHSDKSRPGQYIRSVDPGSPAARSGLRAQDRLIEVNGQNVEGLRHAEVVASIKAREDEARLLVVDPETD

Second part, the molecule before the results:

Molecule: C[C@@H]1[C@H](O)[C@@H](C)/C=C/C=C/CC/C=C/C=C/C=C/C=C/C(O[C@H]2O[C@H](C)[C@@H](O)[C@H](N)[C@@H]2O)CC2O[C@](O)(CC(O)C(O)CCC(O)CC(O)CC(O)CC(=O)O[C@H]1C)CC(O)C2C(=O)O (some centres unmarked) [NYS, nystatin]
- loss of viability (slight cytotoxicity) by endocytosis inhibitors (Caco-2 cells [1]): 5–20%

Molecule: GALFLGWLGAAGSTMGAWSQPKKKRKV-ANSRWPTSII [MPG-iCAL36, MPG cell-penetrating peptide conjugated to iCAL36]
- cellular internalization (Tamra fluorescence), comparison between peptides (Caco-2 cells [2]; Tamra-labelled peptides 1 µM or 5 µM in OptiMEM, […], 37 °C, trypsinization, mean ± SD, n = 4): superior to Tat-iCAL36 and its analogs
- decrease in transfection efficiency with 10% serum (Caco-2 cells [2]; 37 °C, n = 4): ~ 30%
- decrease in transfection efficiency with 20% serum (Caco-2 cells [2]; 37 °C, n = 4): ~ 50%
- cellular internalization (Tamra fluorescence), comparison between peptides (Calu-3 cells; Calu-3, Tamra-labelled peptides 1 µM or 5 µM in OptiMEM, […], 37 °C, trypsinization, flow cytometry, mean ± SD, n = 4): superior to Tat-iCAL36 and its analogs
- decrease in transfection efficiency with 10% serum (Calu-3 cells; Calu-3, Tamra-peptides 5 µM, 3 h, OptiMEM + 10% (v/v) FBS vs 0%, 37 °C, flow cytometry, n = 4): ~ 20%
- decrease in transfection efficiency with 20% serum (Calu-3 cells; Calu-3, Tamra-peptides 5 µM, 3 h, OptiMEM + 20% (v/v) FBS vs 0%, 37 °C, flow cytometry, n = 4): ~ 30%

Molecule: GRKKRRQRRRPPQ-ANSRWPTSII (GRKKRRQRRRPPQANSRWPTSII) [Tat-iCAL36, Tat cell-penetrating peptide conjugated to the N-terminus of iCAL36]
- increase in signal intensity (internalization) with longer incubation time (4.5 h) (Calu-3 cells): ~ 5.7 fold

B1: NHERF2 PDZ1 (N2P1) PDZ1 (protein)
chain: RPRLCRLVRGEQGYGFHLHGEKGRRGQFIRRVEPGSPAEAAALRAGDRLVEVNGVNVEGETHHQVVQRIKAVEGQTRLLVVDQETD
- Ki (TatRI-iCAL36): > 5 mM
